One assay concerns L929 cells. In words: Inhibition of cell necrosis (CCK8 method), L929 cells. The note with it: for IC50: Mus musculus, L929, L929, Murine TNF-α/Z-VAD-FMK, 4-8 hours, CCK8. It counts as cell-based, mouse. How it is done: (§1) In this assay example 2, under the condition of inducing programmed cell necrosis of HT29 and L929 cell lines, different concentrations of the test compounds were added to test the IC50 of the rescue effect of the test compounds on the programmed necrosis.
(§2) • Compounds: dissolved in DMSO to make a 10 mM solution; • TNF-α: initial concentration of 100 µg/mL; • Z-VAD-FMK: dissolved in DMSO to make a 10 mM solution; • AT-406: dissolved in DMSO to make a 10 mM solution. • Cell lines: HT29 cells were cultured in McCoy's 5A medium containing 10% fetal bovine serum, 100 U/mL penicillin, and 100 µg/mL streptomycin, and L929 cells were cultured in MEM medium containing 10% horse serum, 100 U/mL penicillin, and 100 µg/mL streptomycin.
(§3) 1. The test compound was dissolved in DMSO to form a stock solution, and a gradient dilution was performed; the solution was then diluted with the corresponding culture medium to obtain a solution with 10 times the working concentration.
(§4) 2. The cells in the logarithmic growth phase were diluted with culture medium to a specific cell concentration. 80 µL of the cell suspension was added to a 96-well plate, so that the cell densities of HT29 and L929 were 1.2*10^4 cells/well and 2.0*10^4 cells/well, respectively. The plate was cultured in a 37° C., 5% carbon dioxide incubator overnight.
(§5) 3. […] of the compound solution was added to each well of the 96-well plate inoculated with cells. The compounds to be tested were serially diluted 4-fold to obtain 9 concentrations in duplicate, starting from a maximum concentration of 10 μM. At the same time, a control group without compound addition was set up.
(§6) 4. After the cells were cultured for another 30 minutes, 10 μL of the inducer mixture was added to each well. The final concentrations of Human TNF-α, AT-406 and Z-VAD-FMK in HT29 cells were 20 ng/mL, […] and 20 μM, respectively; and the final concentrations of Murine TNF-α and Z-VAD-FMK in L929 cells were 20 ng/mL and 25 μM, respectively.
(§7) 5. The 96-well plate in which compounds and inducer were added was placed in a 37° C., 5% carbon dioxide incubator for further culture, wherein HT29 cells were cultured for 16 hours and L929 cells were cultured for 4-8 hours. Cell viability was detected by CCK8. GraphPad Prism software was used to prepare a dose-effect curve and IC50 was calculated.

The test system of the next assay is HT29 cells. In words: Inhibition of cell necrosis (CCK8 method), HT29 cells. It counts as cell-based, human. The note with it: for IC50: Homo sapiens, HT-29, 16 h, HT29, Human TNF-α/AT-406/Z-VAD-FMK, 16 hours, CCK8. On the procedure: as §1, §2, §3, §4, §5, §6, §7

Where only a bound is given, the exact number is not on record here.

Take `Cc1ccc(OC2CCOCC2)cc1-c1ccnc(N2CCC(C(=O)N3N=CCC3c3cc(F)cc(F)c3)CC2)c1` (stereo not shown) [Example 6, (5-(3,5-difluorophenyl)-4,5-dihydro-1H-pyrazol-1-yl)(1-(4-(2-methyl-5-((tetrahydro-2H-pyran-4-yl)oxy)phenyl)pyridin-2-yl)piperidin-4-yl)methanone]: the concentration for half-maximal inhibition (IC50) with L929 cells lay within 50 to 100 nM; in the assay on HT29 cells, 10 to 50 nM.

For the compound `CC(C)(O)CCCOc1cccc(-c2ccnc(N3CCC(C(=O)N4N=CCC4c4cc(F)cc(F)c4)CC3)c2)c1` (stereo not shown) [Example 8, (5-(3,5-difluorophenyl)-4,5-dihydro-1H-pyrazol-1-yl)(1-(4-(3-((4-hydroxy-4-methylpentyl)oxy)phenyl)pyridin-2-yl)piperidin-4-yl)methanone], the IC50 in the assay on L929 cells and in the assay with HT29 cells was 10 to 50 nM each time.

On to `O=C(C1CCN(c2cc(-c3cc(OCCO)ccc3F)ccn2)CC1)N1N=CCC1c1cc(F)cc(F)c1` (stereo not shown) [Example 22, (5-(3,5-difluorophenyl)-4,5-dihydro-1H-pyrazol-1-yl)(1-(4-(2-fluoro-5-(2-hydroxyethoxy)phenyl)pyridin-2-yl)piperidin-4-yl)methanone], for which the IC50 in the assay with L929 cells was 50 to 100 nM; with HT29 cells it was not above 10 nM.

In the case of `O=C(C1CCN(c2nccc(-c3ccccc3)n2)CC1)N1N=CCC1c1ccccc1` (stereo not shown) [compound 2, reference compound], the “inhibitory activity against mouse L929 cells” value with L929 cells (L929 necrosis) is on record as “almost no inhibitory activities”. Besides, the IC50 was more than 4000 nM with L929 cells and 400 to 4000 nM in the assay on HT29 cells. The “inhibitory activity against human HT29 cells” value with HT29 cells (HT29 necrosis) is listed as “significantly inferior to those of the compounds of the present application”.

Consider `O=C(C1CCN(c2cc(-c3cc(OCCCF)ccc3F)ccn2)CC1)N1N=CCC1c1cc(F)cc(F)c1` (stereo not shown) [Example 27, (5-(3,5-difluorophenyl)-4,5-dihydro-1H-pyrazol-1-yl)(1-(4-(2-fluoro-5-(3-fluoropropoxy)phenyl)pyridin-2-yl)piperidin-4-yl)methanone], for which the figures for the IC50 in the assay with L929 cells and with HT29 cells were 50 to 100 nM and not above 10 nM, respectively.

Take `O=C(C1CCN(c2cc(-c3cccc(OCCCCO)c3)ccn2)CC1)N1N=CCC1c1cc(F)cc(F)c1` (stereo not shown) [Example 7, (5-(3,5-difluorophenyl)-4,5-dihydro-1H-pyrazol-1-yl)(1-(4-(3-(4-hydroxybutoxy)phenyl)pyridin-2-yl)piperidin-4-yl)methanone]: the 50% inhibitory concentration (IC50) in the assay with L929 cells and in the assay with HT29 cells was 10 to 50 nM each time.

Consider `CC(C)(O)CCOc1ccc(F)c(-c2ccnc(N3CCC(C(=O)N4N=CCC4c4cc(F)cc(F)c4)CC3)c2)c1` (racemic) [Example 21, (5-(3,5-difluorophenyl)-4,5-dihydro-1H-pyrazol-1-yl)(1-(4-(2-fluoro-5-(3-hydroxy-3-methylbutoxy)phenyl)pyridin-2-yl)piperidin-4-yl)methanone], for which the IC50 is 10 to 50 nM with L929 cells and not above 10 nM in the assay with HT29 cells.

Turning to `Cc1ccc(OCCCO)cc1-c1ccnc(N2CCC(C(=O)N3N=CCC3c3cc(F)cc(F)c3)CC2)c1` (stereo not shown) [Example 15, (5-(3,5-difluorophenyl)-4,5-dihydro-1H-pyrazol-1-yl)(1-(4-(5-(3-hydroxypropoxy)-2-methylphenyl)pyridin-2-yl)piperidin-4-yl)methanone], the IC50 in the assay on L929 cells was 10 to 50 nM; in the assay on HT29 cells, not above 10 nM.

In the case of `O=C(C1CCN(c2cc(-c3cccc(OCC4CCOCC4)c3)ccn2)CC1)N1N=CCC1c1cc(F)cc(F)c1` (stereo not shown) [Example 14, (5-(3,5-difluorophenyl)-4,5-dihydro-1H-pyrazol-1-yl)(1-(4-(3-((tetrahydro-2H-pyran-4-yl)methoxy)phenyl)pyridin-2-yl)piperidin-4-yl)methanone], the IC50 with L929 cells and in the assay with HT29 cells was 10 to 50 nM each time.

In the case of `O=C(C1CCN(c2cc(-c3cccc(OCCCO)c3)ccn2)CC1)N1N=CCC1c1cc(F)cc(F)c1` (stereo not shown) [Example 12, (5-(3,5-difluorophenyl)-4,5-dihydro-1H-pyrazol-1-yl)(1-(4-(3-(3-hydroxypropoxy)phenyl)pyridin-2-yl)piperidin-4-yl)methanone], the IC50 was 50 to 100 nM in the assay with L929 cells and not above 10 nM in the assay with HT29 cells.
